Here are results for eight molecules from PubChem BioAssay (NCI).

Molecules are shown by their SMILES. “And” between values parts separate entries of the source, which are not always exact repeats. Equal entries are not always repeated.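 Each compound was tested at five concentrations against cells in 96-well plates for 48 hours. Here, GI50 denotes the concentration required for 50% inhibition of growth. TGI: concentration producing complete growth inhibition.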 Bounds are passed on as bounds.

Assay in all cases: NCI-60 cell line screen, 48 h
The subject of assay [1] is MCF7 breast.
Assay [2] has as its system A549 NSCLC.
Assay [3] has as its system SNB-19 CNS.
The subject of assay [4] is UACC-62 melanoma.
Assay [5] deals with HL-60(TB) leukemia.
Assay [6] relates to OVCAR-8 ovarian.
For assay [7], the system named is HCC-2998 colon.
For assay [8], the system named is NCI-H23 lung.
For assay [9], the system named is A498 renal.
Assay [10] relates to SW-620 colon.

As for `COc1ccc(C(=O)c2sc3nc(-c4ccccc4OC)ccc3c2N)cc1OC`, the GI50 in assay [1] was 4.75 µM; in assay [2], 5.85 µM; in [3], 22.8 µM; in assay [4], 4890 nM; in [5] it was 4.07 µM; in assay [6], 4.02 µM. The GI50 is 9.71 µM in assay [7], 50.1 µM in assay [8], 3380 nM in [9] and > 100 µM in [10]. The TGI in assay [1], in assay [2], in [3], in [4], in assay [5] and in [6] was > 100 µM throughout. For the same molecule, the TGI in assay [7], in assay [8], in [9] and in assay [10] was > 100 µM throughout.

As to `Cc1cc(CCl)c(C)cc1CCl`, the GI50 was 0.281 µM in assay [1]; 1.66 µM in assay [2]; 3.75 µM in assay [3]; 1930 nM in [4]; 2.98 µM in [5]; 3.21 µM in [6]. Moreover, the GI50 was 1.54 µM in [7], 3.77 µM in assay [8], 1790 nM in assay [9] and 1.34 µM in assay [10]. In addition, the TGI in [1] came to 2.32 µM; in [2], 5.09 µM; in [3] it was 17.6 µM; in assay [4], 7.59 µM; in assay [5], 13.2 µM; in assay [6], 17.4 µM. Also, the TGI worked out at 3.51 µM in assay [7], 18.5 µM in [8], 3.96 µM in [9] and 5.74 µM in assay [10].

Take `CCCCCCNCCCNc1c2cc(OC)ccc2nc2cccc([N+](=O)[O-])c12`: the GI50 in assay [1] was 0.0348 µM; in assay [2], 0.213 µM; in [3], 0.206 µM; in assay [4], 186 nM; in assay [5], 0.155 µM; in assay [6], 0.236 µM and 0.105 µM. Moreover, the GI50 in [8] was 0.165 µM; in assay [9], 227 nM; in [10], 0.132 µM. The TGI in [1] is 0.398 µM; in assay [2], 0.393 µM and 1.08 µM; in assay [3] it was 3.86 µM and 1.02 µM; in assay [4], 0.305 µM and 0.412 µM; in [6], 2.45 µM and 0.644 µM; in assay [7] it was 0.0643 µM. Further, the TGI is 0.296 µM and 0.351 µM in assay [8]; 3.6 µM and 0.462 µM in assay [9]; 4.19 µM and 1.3 µM in assay [10].

`C=C1C(=O)OC2C1CCC(C)C1(O)C=CC(=O)C21C` (stereo not drawn): the TGI is > 10 µM in assay [1]; > 10 µM in [2]; > 10 µM in assay [3]; > 10 µM in assay [4]; 9.5 µM in assay [5]; > 10 µM in assay [6]. For the same molecule, the TGI in [7], in assay [8], in assay [9] and in assay [10] was > 10 µM throughout.

For the molecule `CN(Cc1ccc(F)cc1)c1ccc(CO)c(Cl)c1`, the GI50 was 1.23 µM in assay [1]; 5.54 µM in assay [2]; 38.3 µM in assay [3]; 323 nM in assay [4]; 12.5 µM in assay [5]; 20.7 µM in assay [6]. Also, the GI50 in [7] was 14.9 µM; in [8], 11.6 µM; in assay [9], 50.7 nM; in assay [10], 5.14 µM. In addition, the TGI in [1] was 21.5 µM; in assay [2] it was > 60.1 µM; in assay [3] it was > 100 µM; in assay [4], 3.32 µM; in [5] it was 54 µM; in assay [6], > 100 µM. In addition, the TGI is 57 µM in assay [7], > 72.7 µM in assay [8], 0.174 µM in [9] and > 100 µM in [10].

Regarding `COc1ccc(-c2nc(-c3nc4cc(Cl)c(F)cc4[nH]3)c3ccccn23)cc1`, the GI50 in [1] is 4.57 µM; in assay [2] it was 4.04 µM; in [3], 8.34 µM; in [4], 6050 nM; in [5], 4.97 µM; in assay [6] it was 3.45 µM. Further, the GI50 in [7] is 4.03 µM; in assay [8], 29.1 µM; in [9] it was 2310 nM; in [10], 5.38 µM. Also, the TGI in [1], in assay [2], in [3], in [4], in [5] and in [6] was > 100 µM in each case. The TGI in [7], in assay [8], in assay [9] and in assay [10] was > 100 µM throughout.

In the case of `O=C(c1ccc2ccccc2c1)c1nc2cc(F)ccc2[n+]([O-])c1C(F)(F)F`, the GI50 in assay [1] was 35.6 µM; in assay [2] it was 20.6 µM; in assay [3], 19.4 µM; in assay [4] it was 17000 nM; in [5] it was 6.68 µM; in [6], 16.7 µM. Also, the GI50 in assay [7] is 15.8 µM; in assay [8], 13 µM; in assay [9] it was 43700 nM; in assay [10] it was 17.3 µM. Moreover, the TGI in assay [1] was > 100 µM; in [2] it was 53.7 µM; in assay [3], 37.8 µM; in assay [4], 32.6 µM; in assay [5], 24.9 µM; in [6] it was 32.4 µM. The TGI in [7] is 31.3 µM; in assay [8], 29.1 µM; in [9] it was > 100 µM; in [10], 37 µM.

Regarding `C/C(=C(/c1ccccc1)c1ccc(OCC(O)CNCCN2CCOCC2)cc1)c1ccccc1` (stereo not drawn), the GI50 is 3.61 µM in assay [1]; 3.99 µM in assay [2]; 4.77 µM in assay [3]; 1930 nM in assay [4]; 1.95 µM in assay [5]; 3.74 µM in assay [6]. In addition, the GI50 was 1.93 µM in assay [7], 3.87 µM in [8], 1520 nM in assay [9] and 1.77 µM in assay [10]. For the same molecule, the TGI in [1] came to 10.2 µM; in assay [2], 15.6 µM; in [3] it was 17.8 µM; in assay [4], 3.82 µM; in assay [5], 4.04 µM; in assay [6], 15.1 µM. For the same molecule, the TGI stood at 3.43 µM in assay [7], 14.5 µM in assay [8], 10.1 µM in assay [9] and 3.36 µM in assay [10].
